Numbers after ± are expanded uncertainties.
Test: excess molar enthalpy (molar enthalpy of mixing); xn = mol fraction of the nth substance listed
Conditions: Liquid, Flow calorimetry

Molecule `COC(C)=O` [methyl ethanoate] + CCCCCO has an excess molar enthalpy (298.15 K, 5000 kPa, x1 = 0.049) of 0.0821 ± 0.00182 kcal/mol, an excess molar enthalpy (298.15 K, 5000 kPa, x1 = 0.1) of 0.157 ± 0.00227 kcal/mol and an excess molar enthalpy (298.15 K, 5000 kPa, x1 = 0.15) of 0.22 ± 0.00263 kcal/mol. The excess molar enthalpy (298.15 K, 5000 kPa, x1 = 0.2) was 0.273 ± 0.00311 kcal/mol, the excess molar enthalpy (298.15 K, 5000 kPa, x1 = 0.249) was 0.314 ± 0.00359 kcal/mol and the excess molar enthalpy (298.15 K, 5000 kPa, x1 = 0.299) was 0.349 ± 0.00382 kcal/mol. The excess molar enthalpy (298.15 K, 5000 kPa, x1 = 0.349) was 0.375 ± 0.00406 kcal/mol, the excess molar enthalpy (298.15 K, 5000 kPa, x1 = 0.401) was 0.394 ± 0.0043 kcal/mol and the excess molar enthalpy (298.15 K, 5000 kPa, x1 = 0.451) was 0.404 ± 0.0043 kcal/mol. It also gave an excess molar enthalpy (298.15 K, 5000 kPa, x1 = 0.5) of 0.407 ± 0.0043 kcal/mol, an excess molar enthalpy (298.15 K, 5000 kPa, x1 = 0.55) of 0.403 ± 0.0043 kcal/mol and an excess molar enthalpy (298.15 K, 5000 kPa, x1 = 0.599) of 0.391 ± 0.0043 kcal/mol. For the same molecule, the excess molar enthalpy (298.15 K, 5000 kPa, x1 = 0.65) was 0.371 ± 0.00406 kcal/mol, the excess molar enthalpy (298.15 K, 5000 kPa, x1 = 0.749) was 0.31 ± 0.00335 kcal/mol and the excess molar enthalpy (298.15 K, 5000 kPa, x1 = 0.801) was 0.264 ± 0.00287 kcal/mol. It also gave an excess molar enthalpy (298.15 K, 5000 kPa, x1 = 0.85) of 0.213 ± 0.00237 kcal/mol, an excess molar enthalpy (298.15 K, 5000 kPa, x1 = 0.901) of 0.15 ± 0.00174 kcal/mol and an excess molar enthalpy (298.15 K, 5000 kPa, x1 = 0.95) of 0.08 ± 0.00103 kcal/mol. The excess molar enthalpy (298.15 K, 10000 kPa, x1 = 0.049) was 0.0827 ± 0.00184 kcal/mol, the excess molar enthalpy (298.15 K, 10000 kPa, x1 = 0.099) was 0.158 ± 0.00227 kcal/mol and the excess molar enthalpy (298.15 K, 10000 kPa, x1 = 0.15) was 0.221 ± 0.00263 kcal/mol. The excess molar enthalpy (298.15 K, 10000 kPa, x1 = 0.199) was 0.273 ± 0.00311 kcal/mol, the excess molar enthalpy (298.15 K, 10000 kPa, x1 = 0.248) was 0.315 ± 0.00359 kcal/mol and the excess molar enthalpy (298.15 K, 10000 kPa, x1 = 0.299) was 0.35 ± 0.00382 kcal/mol. It also gave an excess molar enthalpy (298.15 K, 10000 kPa, x1 = 0.348) of 0.375 ± 0.00406 kcal/mol, an excess molar enthalpy (298.15 K, 10000 kPa, x1 = 0.4) of 0.394 ± 0.0043 kcal/mol and an excess molar enthalpy (298.15 K, 10000 kPa, x1 = 0.45) of 0.404 ± 0.0043 kcal/mol. The excess molar enthalpy (298.15 K, 10000 kPa, x1 = 0.499) was 0.407 ± 0.0043 kcal/mol, the excess molar enthalpy (298.15 K, 10000 kPa, x1 = 0.55) was 0.403 ± 0.0043 kcal/mol and the excess molar enthalpy (298.15 K, 10000 kPa, x1 = 0.599) was 0.391 ± 0.00406 kcal/mol. It also gave an excess molar enthalpy (298.15 K, 10000 kPa, x1 = 0.649) of 0.371 ± 0.00406 kcal/mol, an excess molar enthalpy (298.15 K, 10000 kPa, x1 = 0.748) of 0.309 ± 0.00335 kcal/mol and an excess molar enthalpy (298.15 K, 10000 kPa, x1 = 0.8) of 0.263 ± 0.00311 kcal/mol. The excess molar enthalpy (298.15 K, 10000 kPa, x1 = 0.85) was 0.21 ± 0.00263 kcal/mol, the excess molar enthalpy (298.15 K, 10000 kPa, x1 = 0.901) was 0.146 ± 0.00217 kcal/mol and the excess molar enthalpy (298.15 K, 10000 kPa, x1 = 0.95) was 0.0747 ± 0.00177 kcal/mol. It also gave an excess molar enthalpy (308.15 K, 10000 kPa, x1 = 0.051) of 0.0858 ± 0.00194 kcal/mol, an excess molar enthalpy (308.15 K, 10000 kPa, x1 = 0.099) of 0.162 ± 0.00232 kcal/mol and an excess molar enthalpy (308.15 K, 10000 kPa, x1 = 0.15) of 0.223 ± 0.00263 kcal/mol. It also gave an excess molar enthalpy (308.15 K, 10000 kPa, x1 = 0.199) of 0.281 ± 0.00311 kcal/mol, an excess molar enthalpy (308.15 K, 10000 kPa, x1 = 0.251) of 0.325 ± 0.00359 kcal/mol and an excess molar enthalpy (308.15 K, 10000 kPa, x1 = 0.299) of 0.361 ± 0.00382 kcal/mol. It also gave an excess molar enthalpy (308.15 K, 10000 kPa, x1 = 0.351) of 0.388 ± 0.00406 kcal/mol, an excess molar enthalpy (308.15 K, 10000 kPa, x1 = 0.4) of 0.406 ± 0.0043 kcal/mol and an excess molar enthalpy (308.15 K, 10000 kPa, x1 = 0.45) of 0.418 ± 0.0043 kcal/mol. For the same molecule, the excess molar enthalpy (308.15 K, 10000 kPa, x1 = 0.499) was 0.419 ± 0.0043 kcal/mol, the excess molar enthalpy (308.15 K, 10000 kPa, x1 = 0.55) was 0.415 ± 0.0043 kcal/mol and the excess molar enthalpy (308.15 K, 10000 kPa, x1 = 0.599) was 0.402 ± 0.0043 kcal/mol. It also gave an excess molar enthalpy (308.15 K, 10000 kPa, x1 = 0.649) of 0.382 ± 0.00406 kcal/mol, an excess molar enthalpy (308.15 K, 10000 kPa, x1 = 0.701) of 0.351 ± 0.00382 kcal/mol and an excess molar enthalpy (308.15 K, 10000 kPa, x1 = 0.752) of 0.316 ± 0.00359 kcal/mol. It also gave an excess molar enthalpy (308.15 K, 10000 kPa, x1 = 0.8) of 0.272 ± 0.00311 kcal/mol, an excess molar enthalpy (308.15 K, 10000 kPa, x1 = 0.85) of 0.22 ± 0.00263 kcal/mol and an excess molar enthalpy (308.15 K, 10000 kPa, x1 = 0.901) of 0.152 ± 0.00225 kcal/mol. For the same molecule, the excess molar enthalpy (308.15 K, 10000 kPa, x1 = 0.95) was 0.0782 ± 0.00184 kcal/mol.

— the NIST ThermoML archive (doi:10.1021/je050175u)
